Experimental data: publication PMC5892408, “Novel dual-function near-infrared II fluorescence and PET probe for tumor delineation and image-guided surgery” (Chemical Science, 2018)

Experiment: Photostability under continuous 808 nm laser illumination
Format: physicochemical
Conditions: same conditions as CHS2; 808 nm laser illumination (82 mW cm^-2) for 1 h
Experimental: Fig. 2 (a) Fluorescence emission of CHS2 under 808 nm excitation; (b) photostability of CHS2 in water, PBS and serum under 808 nm laser illumination (105 mW cm^–2) for 1 h; (c) photostability of ICG vs.CHS2 under 808 nm laser illumination (82 mW cm^–2) for 1 h; (d) cellular toxicity of different concentrations of CHS2 in U87MG cell lines.

photostability (fluorescence decay): ~50%
SMILES: CC1(C)C(/C=C/C=C/C=C/C=C2\N(CCCCS(=O)(=O)O)c3ccc4ccccc4c3C2(C)C)=[N+](CCCCS(=O)(=O)[O-])c2ccc3ccccc3c21 [ICG, indocyanine green]
